Reference: ChEMBL document CHEMBL5291721, “A preclinical secondary pharmacology resource illuminates target-adverse drug reaction associations of marketed drugs” (Nat Commun, 2023)

Experiments:
[1] = target: T1, Alpha-2A adrenergic receptor (Homo sapiens, UniProt P08913); format: functional, cell-based
T1 sequence (P08913 whole entry): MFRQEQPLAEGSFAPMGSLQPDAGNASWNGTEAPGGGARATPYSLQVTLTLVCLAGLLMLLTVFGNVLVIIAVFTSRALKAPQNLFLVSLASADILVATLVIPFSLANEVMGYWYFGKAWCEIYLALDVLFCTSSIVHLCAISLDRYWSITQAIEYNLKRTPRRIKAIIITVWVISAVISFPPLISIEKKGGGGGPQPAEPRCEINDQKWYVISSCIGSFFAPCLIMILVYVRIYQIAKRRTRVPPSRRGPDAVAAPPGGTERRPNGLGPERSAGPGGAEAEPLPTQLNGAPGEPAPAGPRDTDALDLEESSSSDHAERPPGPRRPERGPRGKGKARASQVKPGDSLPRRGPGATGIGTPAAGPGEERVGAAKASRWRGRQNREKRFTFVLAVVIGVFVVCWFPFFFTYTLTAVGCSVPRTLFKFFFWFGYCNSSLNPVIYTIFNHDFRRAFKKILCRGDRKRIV

[2] = target: Beta-2 adrenergic receptor (Homo sapiens, UniProt P07550)
Sequence of Beta-2 adrenergic receptor (P07550 whole entry): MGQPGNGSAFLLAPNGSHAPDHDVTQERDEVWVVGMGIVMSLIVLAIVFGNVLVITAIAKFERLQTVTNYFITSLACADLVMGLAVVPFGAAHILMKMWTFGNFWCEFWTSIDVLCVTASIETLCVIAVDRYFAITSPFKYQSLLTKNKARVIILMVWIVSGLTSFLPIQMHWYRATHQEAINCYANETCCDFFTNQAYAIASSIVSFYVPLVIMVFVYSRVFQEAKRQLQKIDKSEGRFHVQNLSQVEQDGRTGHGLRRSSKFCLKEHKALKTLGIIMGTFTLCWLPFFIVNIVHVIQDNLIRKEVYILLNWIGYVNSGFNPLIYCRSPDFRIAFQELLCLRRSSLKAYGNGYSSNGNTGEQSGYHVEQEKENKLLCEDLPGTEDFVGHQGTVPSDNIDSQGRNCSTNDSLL

[3] = target: T2, 5-hydroxytryptamine receptor 1A (Homo sapiens, UniProt P08908); format: functional, cell-based
T2 sequence (P08908 whole entry): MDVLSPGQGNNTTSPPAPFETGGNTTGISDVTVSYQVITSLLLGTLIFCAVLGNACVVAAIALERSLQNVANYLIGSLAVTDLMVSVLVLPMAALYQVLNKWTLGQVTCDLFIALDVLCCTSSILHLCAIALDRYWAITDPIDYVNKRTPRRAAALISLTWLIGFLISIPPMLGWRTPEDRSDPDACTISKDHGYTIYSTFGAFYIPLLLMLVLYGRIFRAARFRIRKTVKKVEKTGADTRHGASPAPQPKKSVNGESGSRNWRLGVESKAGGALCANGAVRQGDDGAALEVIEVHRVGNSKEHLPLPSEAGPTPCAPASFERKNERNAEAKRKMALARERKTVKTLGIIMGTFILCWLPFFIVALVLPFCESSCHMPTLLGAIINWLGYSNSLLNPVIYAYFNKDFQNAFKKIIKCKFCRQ

[4] = target: T3, Amine oxidase [flavin-containing] A (Homo sapiens, UniProt P21397); format: functional
T3 sequence (P21397 whole entry): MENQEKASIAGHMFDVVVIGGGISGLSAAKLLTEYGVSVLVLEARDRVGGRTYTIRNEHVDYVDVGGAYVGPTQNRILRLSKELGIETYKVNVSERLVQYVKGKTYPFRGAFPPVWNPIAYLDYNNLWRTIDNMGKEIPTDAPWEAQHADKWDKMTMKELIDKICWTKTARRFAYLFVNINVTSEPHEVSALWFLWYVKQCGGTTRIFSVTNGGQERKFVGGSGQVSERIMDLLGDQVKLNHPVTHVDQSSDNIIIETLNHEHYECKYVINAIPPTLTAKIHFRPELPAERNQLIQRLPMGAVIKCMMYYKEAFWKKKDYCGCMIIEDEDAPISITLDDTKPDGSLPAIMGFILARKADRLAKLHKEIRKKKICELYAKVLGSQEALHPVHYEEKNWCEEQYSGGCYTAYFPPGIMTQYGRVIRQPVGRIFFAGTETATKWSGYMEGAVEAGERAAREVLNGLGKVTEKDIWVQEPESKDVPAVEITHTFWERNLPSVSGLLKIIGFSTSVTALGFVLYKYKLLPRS

[5] = target: T4, Muscarinic acetylcholine receptor M2 (Homo sapiens, UniProt P08172); format: functional, cell-based
T4 sequence (P08172 whole entry): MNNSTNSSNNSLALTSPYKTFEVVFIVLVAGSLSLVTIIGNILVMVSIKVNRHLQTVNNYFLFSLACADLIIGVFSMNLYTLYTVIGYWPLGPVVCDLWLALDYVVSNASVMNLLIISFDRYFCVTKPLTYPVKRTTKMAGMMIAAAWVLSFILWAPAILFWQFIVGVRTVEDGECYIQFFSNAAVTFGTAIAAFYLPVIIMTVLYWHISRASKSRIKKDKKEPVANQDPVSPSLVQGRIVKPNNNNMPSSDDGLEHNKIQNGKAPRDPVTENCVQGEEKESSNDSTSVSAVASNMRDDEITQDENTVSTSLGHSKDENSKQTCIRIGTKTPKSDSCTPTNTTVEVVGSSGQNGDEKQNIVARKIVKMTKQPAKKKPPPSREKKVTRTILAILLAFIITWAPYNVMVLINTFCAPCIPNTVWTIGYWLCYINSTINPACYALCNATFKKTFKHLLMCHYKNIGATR

[6] = target: T4, Muscarinic acetylcholine receptor M2; format: functional, cell-based; remark: listed apart in the source
Also: assay procedure not described here.

Row | SMILES | AC50 [1] [µM] | AC50 [2] [µM] | AC50 [3] [µM] | AC50 [4] [µM] | AC50 [5] [µM] | AC50 [6] [µM]
1 | C[N+]1(C)CCC(=C(c2ccccc2)c2ccccc2)CC1 | > 10 | > 10 | > 10 | > 10 |  | 
2 | C[N+](C)(C)CCOP(=O)([O-])OC[C@H](O)CO | > 30 | > 30 | > 30 | > 30 | > 30 | > 30
3 | CN(C)Cc1nnc2n1-c1ccc(Cl)cc1C(c1ccccc1)=NC2 [ADINAZOLAM] | > 10 | > 10 | > 10 | > 10 | > 10 | > 10
4 | CN(C)C/C=C/C(=O)Nc1cc2c(Nc3ccc(F)c(Cl)c3)ncnc2cc1O[C@H]1CCOC1 [AFATINIB] | > 30 |  | > 30 | > 30 | 23 | > 30
5 | Cc1ccccc1-n1c(CF)nc2ccc(N)cc2c1=O [AFLOQUALONE] | > 10 | > 30 | > 10 | > 10 | > 10 | > 10
6 | CCC1(c2ccc(N)cc2)CCC(=O)NC1=O (configuration not stated) [AMINOGLUTETHIMIDE] | > 30 |  | > 30 | > 30 | > 30 | > 30
7 | CC1=C(C(=O)OC(C)C)C(c2cccc([N+](=O)[O-])c2)C(C(=O)OC2CN(C(c3ccccc3)c3ccccc3)C2)=C(N)N1 (configuration not stated) [AZELNIDIPINE] | > 30 | > 30 | > 30 | > 30 | > 30 | > 30
8 | CC(Cc1cccc(C(F)(F)F)c1)NCCOC(=O)c1ccccc1 (configuration not stated) [BENFLUOREX] | > 30 |  | 4.3 | > 30 | > 30 | 
9 | CCOC(=O)c1ccc(N)cc1 [BENZOCAINE] | > 10 | > 10 | > 10 | 19 | > 10 | > 10
10 | CC(C)(Oc1ccc(CCNC(=O)c2ccc(Cl)cc2)cc1)C(=O)O [BEZAFIBRATE] | > 10 | > 10 | > 30 | > 10 | > 10 | > 10
11 | CC(O)(CS(=O)(=O)c1ccc(F)cc1)C(=O)Nc1ccc(C#N)c(C(F)(F)F)c1 (configuration not stated) [BICALUTAMIDE] | > 10 | > 30 | > 10 | > 10 | > 10 | > 10
12 | CC(=O)O[C@]1(C(C)=O)CC[C@H]2[C@@H]3C=C(Cl)C4=CC(=O)[C@@H]5C[C@@H]5[C@]4(C)[C@H]3CC[C@@]21C [CYPROTERONE ACETATE] |  | > 10 |  | > 10 |  | 
13 | C/C=C(/C(=C/C)c1ccc(O)cc1)c1ccc(O)cc1 [DIENESTROL] | > 10 | > 10 | > 10 | > 10 | > 10 | > 10
14 | CN[C@]1(c2ccccc2Cl)CCCCC1=O [ESKETAMINE] | > 30 | > 30 | > 30 | > 30 | > 30 | > 30
15 | C[C@@H]1C[C@H]2[C@@H]3C[C@H](F)C4=CC(=O)C=C[C@]4(C)[C@@]3(F)[C@@H](O)C[C@]2(C)[C@@]1(OC(=O)c1ccco1)C(=O)SCF [FLUTICASONE FUROATE] | > 10 | > 10 | > 10 | > 10 | > 10 | > 10
16 | COc1ccc([C@@H]2CC(=O)c3c(O)cc(O)cc3O2)cc1O [HESPERETIN] | > 10 | > 10 | > 10 | > 10 | > 10 | > 10
17 | CNCCc1ccc(OC(=O)C(C)C)c(OC(=O)C(C)C)c1 [IBOPAMINE] | 3.48 | > 30 | > 30 | > 30 | > 30 | > 30
18 | CN(C)CCCN1c2ccccc2CCc2ccccc21 [IMIPRAMINE] | > 10 | > 10 | > 10 | > 10 | 4.3 | > 10
19 | CCOC(=O)C1=C(C)NC(C)=C(C(=O)OCC)C1c1ccccc1/C=C/C(=O)OC(C)(C)C [LACIDIPINE] | > 30 | > 30 | > 30 | > 30 | > 30 | > 30
20 | CCC[C@@H]1C[C@@H](C(=O)N[C@@H]([C@H]2O[C@H](SC)[C@H](O)[C@@H](O)[C@H]2O)[C@@H](C)O)N(C)C1 [LINCOMYCIN] | > 30 | > 10 | > 30 | > 10 | > 10 | > 10
21 | COC(=O)C1=C(C)NC(C)=C(C(=O)OCCN2CCN(C(c3ccccc3)c3ccccc3)CC2)C1c1cccc([N+](=O)[O-])c1 (configuration not stated) [MANIDIPINE 6300] | > 30 | > 30 | > 30 | > 30 | > 30 | > 30
22 | C=C1c2cccc(O)c2C(=O)C2=C(O)[C@]3(O)C(=O)C(C(N)=O)=C(O)[C@@H](N(C)C)[C@@H]3[C@@H](O)[C@H]12 [METHACYCLINE] | > 10 | > 10 | > 10 | > 10 | > 10 | > 10
23 | CN(Cc1cnc2nc(N)nc(N)c2n1)c1ccc(C(=O)N[C@@H](CCC(=O)O)C(=O)O)cc1 [METHOTREXATE] | > 10 | > 10 | > 10 | > 10 | > 10 | > 10
24 | Cc1ccccc1N1C(=O)c2cc(S(N)(=O)=O)c(Cl)cc2NC1C (configuration not stated) [METOLAZONE] | > 10 | > 10 | > 10 | > 10 | > 10 | > 10
25 | O=C(O)c1cccnc1Nc1cccc(C(F)(F)F)c1 [NIFLUMIC ACID] | > 10 | > 10 | > 10 | > 10 | > 10 | > 10
26 | O=C1c2cccc3c2[C@H](CCC3)CN1[C@@H]1CN2CCC1CC2 [PALONOSETRON] | > 30 | > 30 | > 30 | > 30 | > 30 | > 30
27 | OC[C@H]1O[C@@H](n2cnc3c2NC=NC[C@H]3O)C[C@@H]1O [PENTOSTATIN] | > 30 |  | > 30 | > 30 | > 30 | > 30
28 | O=C1c2ccccc2C(=O)C1c1ccccc1 [PHENINDIONE] | > 10 | > 10 | > 30 | > 10 | > 10 | > 10
29 | CC(C)c1cccc(C(C)C)c1O [PROPOFOL] | > 30 |  | > 30 | > 30 | > 30 | > 30
30 | O=C1OC(OC(=O)c2cccnc2Nc2cccc(C(F)(F)F)c2)c2ccccc21 (configuration not stated) [TALNIFLUMATE] | > 30 |  | > 30 | > 30 | > 30 | > 30
